From US8440698B2, “3-(4-((1H-imidazol-1-yl)methyl)phenyl)-5-aryl-1,2,4-oxadiazole derivatives as sphingosine-1 phosphate receptors modulators” (Allergan, Inc., priority 2010, dated 2013)

Target: T1, human S1P1 receptor (Homo sapiens, UniProt P21453)
T1 construct: expressed in transfected cells; membranes used
Experiment: GTP γ35S binding assay for S1P1 activity
Assay type: biochemical
Conditions: for Emax at 5 µM: intrinsic activity at 5 μM, read-out: % S1P1 STIMULATION @ 5 μM; for EC50: membranes of cells stably expressing S1P1, test concentrations 0.08 to 5,000 nM, read-out: S1P1 GTPγ^35S EC50
Method: Novel compounds were synthesized and tested for S1P1 activity using the GTP γ^35S binding assay. These compounds may be assessed for their ability to activate or block activation of the human S1P1 receptor in cells stably expressing the S1P1 receptor. GTP γ^35S binding was measured in the medium containing (mM) HEPES 25, pH 7.4, MgCl2 10, NaCl 100, dithitothreitol 0.5, digitonin 0.003%, 0.2 nM GTP γ^35S, and 5 μg membrane protein in a volume of 150 μl. Test compounds were included in the concentration range from 0.08 to 5,000 nM unless indicated otherwise. Membranes were incubated with 100 μM 5′-adenylylimmidodiphosphate for 30 min, and subsequently with 10 μM GDP for 10 min on ice. Drug solutions and membrane were mixed, and then reactions were initiated by adding GTP γ^35S and continued for 30 min at 25° C. Reaction mixtures were filtered over Whatman GF/B filters under vacuum, and washed three times with 3 mL of ice-cold buffer (HEPES 25, pH7.4, MgCl2 10 and NaCl 100). Filters were dried and mixed with scintillant, and counted for ^35S activity using a β-counter. Agonist-induced GTP γ^35S binding was obtained by subtracting that in the absence of agonist. Binding data were analyzed using a non-linear regression method. In case of antagonist assay, the reaction mixture contained 10 nM S1P in the presence of test antagonist at concentrations ranging from 0.08 to 5000 nM.

T1 sequence (P21453 whole entry): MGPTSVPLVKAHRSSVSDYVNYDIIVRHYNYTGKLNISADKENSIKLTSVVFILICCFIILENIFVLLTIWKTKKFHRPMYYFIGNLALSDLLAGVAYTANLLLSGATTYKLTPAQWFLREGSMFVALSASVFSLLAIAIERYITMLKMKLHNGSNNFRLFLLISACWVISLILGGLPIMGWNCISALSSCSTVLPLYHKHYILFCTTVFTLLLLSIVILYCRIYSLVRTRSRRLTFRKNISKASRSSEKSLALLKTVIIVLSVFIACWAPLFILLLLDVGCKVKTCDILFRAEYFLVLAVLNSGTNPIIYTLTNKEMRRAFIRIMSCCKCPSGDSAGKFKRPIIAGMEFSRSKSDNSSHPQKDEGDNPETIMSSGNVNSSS

Structure (SMILES)	Emax at 5 µM [%]	EC50 [nM]
CC(C)Oc1ccc(-c2nc(-c3ccc(Cn4ccnc4)cc3Cl)no2)cc1C(F)(F)F [3-[2-chloro-4-(1H-imidazol-1-ylmethyl)phenyl]-5-[4-isopropoxy-3-(trifluoromethyl)phenyl]-1,2,4-oxadiazole]	79.6	3.55
Cc1cc(-c2nc(-c3ccc(Cn4ccnc4)cc3C(F)(F)F)no2)ccc1OC(C)C [3-[4-(1H-imidazol-1-ylmethyl)-2-(trifluoromethyl)phenyl]-5-(4-isopropoxy-3-methylphenyl)-1,2,4-oxadiazole]	7.4	–
CC(C)Oc1ccc(-c2nc(-c3ccc(Cn4ccnc4)cc3C(F)(F)F)no2)cc1Br [5-(3-Bromo-4-isopropoxy-phenyl)-3-(4-imidazol-1-ylmethyl-2-trifluoromethyl-phenyl)-[1,2,4]oxadiazole]	100	102
CC(C)COc1ccc(-c2nc(-c3ccc(Cn4ccnc4)cc3C(F)(F)F)no2)cc1Br [5-(3-bromo-4-isobutoxyphenyl)-3-[4-(1H-imidazol-1-ylmethyl)-2-(trifluoromethyl)phenyl]-1,2,4-oxadiazole]	98.3	144
CC(C)Oc1ccc(-c2nc(-c3ccc(Cn4ccnc4)cc3C(F)(F)F)no2)cc1C#N [5-[3-(4-Imidazol-1-ylmethyl-2-trifluoromethyl-phenyl)-[1,2,4]oxadiazol-5-yl]-2-isopropoxy-benzonitrile]	97.6	5.22
CC(C)Oc1ccc(-c2nc(-c3ccc(Cn4ccnc4)cc3Cl)no2)cc1C#N [5-{3-[2-chloro-4-(1H-imidazol-1-ylmethyl)phenyl]-1,2,4-oxadiazol-5-yl}-2-isopropoxybenzonitrile]	94.9	4.56
CC1CCCCN1c1ccc(-c2nc(-c3ccc(Cn4ccnc4)cc3)no2)cc1C#N (stereo not shown) [5-{3-[4-(1H-imidazol-1-ylmethyl)phenyl]-1,2,4-oxadiazol-5-yl}-2-(2-methylpiperidin-1-yl)benzonitrile]	99.9	130
Brc1cc(-c2nc(-c3ccc(Cn4ccnc4)cc3)no2)ccc1OC1CC1 [Compound 1, 5-(3-Bromo-4-cyclopropoxy-phenyl)-3-(4-imidazol-1-ylmethyl-phenyl)-[1,2,4]oxadiazole]	99.9	14.4
Cc1cc(Cn2ccnc2)ccc1-c1noc(-c2ccc(OC3CC3)c(Br)c2)n1 [Compound 2, 5-(3-Bromo-4-cyclopropoxy-phenyl)-3-(4-imidazol-1-ylmethyl-2-methyl-phenyl)-[1,2,4]oxadiazole]	96	32
CC(C)Oc1ccc(-c2nc(-c3ccc(Cn4ccnc4)cc3)no2)cc1C(F)(F)F [Compound 3, 3-(4-Imidazol-1-ylmethyl-phenyl)-5-(4-isopropoxy-3-trifluoromethyl-phenyl)-[1,2,4]oxadiazole]	95.6	0.51
CC(C)COc1ccc(-c2nc(-c3ccc(Cn4ccnc4)cc3)no2)cc1C(F)(F)F [Compound 4, 3-(4-Imidazol-1-ylmethyl-phenyl)-5-(4-isobutoxy-3-trifluoromethyl-phenyl)-[1,2,4]oxadiazole]	72.2	998
FC(F)(F)c1cc(-c2nc(-c3ccc(Cn4ccnc4)cc3)no2)ccc1OC1CCCCC1 [Compound 5, 5-(4-Cyclohexyloxy-3-trifluoromethyl-phenyl)-3-(4-imidazol-1-ylmethyl-phenyl)-[1,2,4]oxadiazole]	91.8	149
CC(C)COc1ccc(-c2nc(-c3ccc(Cn4ccnc4)cc3)no2)cc1C#N [Compound 8, 5-[3-(4-Imidazol-1-ylmethyl-phenyl)-[1,2,4]oxadiazol-5-yl]-2-isobutoxy-benzonitrile]	75.9	62
CC(C)COc1ccc(-c2nc(-c3ccc(Cn4ccnc4)cc3)no2)cc1Br [Compound 9, 5-(3-Bromo-4-isobutoxy-phenyl)-3-(4-imidazol-1-ylmethyl-phenyl)-[1,2,4]oxadiazole]	86.2	28.6
CC(C)Oc1ccc(-c2nc(-c3ccc(Cn4ccnc4)cc3)no2)cc1 [Compound 11, 3-(4-Imidazol-1-ylmethyl-phenyl)-5-(4-isopropoxy-phenyl)-[1,2,4]oxadiazole]	92.8	453
CC(C)Oc1ccc(-c2nc(-c3ccc(Cn4ccnc4)cc3)no2)cc1C#N [Compound 12, 5-[3-(4-Imidazol-1-ylmethyl-phenyl)-[1,2,4]oxadiazol-5-yl]-2-isopropoxy-benzonitrile]	94.6	3.31
CC(C)Oc1ccc(-c2nc(-c3ccc(Cn4ccnc4)cc3)no2)cc1Cl [Compound 16, 5-(3-Chloro-4-isopropoxy-phenyl)-3-(4-imidazol-1-ylmethyl-phenyl)-[1,2,4]oxadiazole]	99.8	2.79

Now from value to compound:

Emax at 5 µM [%]	EC50 [nM]	Structure (SMILES)
92.3	8.79	CC(C)Oc1ccc(-c2nc(-c3ccc(Cn4ccnc4)cc3Cl)no2)cc1[N+](=O)[O-] [3-[2-chloro-4-(1H-imidazol-1-ylmethyl)phenyl]-5-(4-isopropoxy-3-nitrophenyl)-1,2,4-oxadiazole]
79.4	6.37	CC(C)Oc1ccc(-c2nc(-c3ccc(Cn4ccnc4)cc3C(F)(F)F)no2)cc1[N+](=O)[O-] [3-[4-(1H-imidazol-1-ylmethyl)-2-(trifluoromethyl)phenyl]-5-(4-isopropoxy-3-nitrophenyl)-1,2,4-oxadiazole]
80.9	62.4	CC(C)Oc1ccc(-c2nc(-c3ccc(Cn4ccnc4)cc3C(F)(F)F)no2)cc1C(F)(F)F [3-[4-(1H-imidazol-1-ylmethyl)-2-(trifluoromethyl)phenyl]-5-[4-isopropoxy-3-(trifluoromethyl)phenyl]-1,2,4-oxadiazole]
102	29.7	CC(C)Oc1ccc(-c2nc(-c3ccc(Cn4ccnc4)cc3Cl)no2)cc1Br [5-(3-bromo-4-isopropoxyphenyl)-3-[2-chloro-4-(1H-imidazol-1-ylmethyl)phenyl]-1,2,4-oxadiazole]
89.6	119	FC(F)(F)c1cc(Cn2ccnc2)ccc1-c1noc(-c2ccc(OC3CC3)c(Br)c2)n1 [5-[3-bromo-4-(cyclopropyloxy)phenyl]-3-[4-(1H-imidazol-1-ylmethyl)-2-(trifluoromethyl)phenyl]-1,2,4-oxadiazole]
95.5	3.38	Cc1cc(Cn2ccnc2)ccc1-c1noc(-c2ccc(OC(C)C)c(C(F)(F)F)c2)n1 [Compound 6, 3-(4-Imidazol-1-ylmethyl-2-methyl-phenyl)-5-(4-isopropoxy-3-trifluoromethyl-phenyl)-[1,2,4]oxadiazole]
118	3.24	CC(C)Oc1ccc(-c2nc(-c3ccc(Cn4ccnc4)cc3)no2)cc1[N+](=O)[O-] [Compound 7, 3-(4-Imidazol-1-ylmethyl-phenyl)-5-(4-isopropoxy-3-nitro-phenyl)-[1,2,4]oxadiazole]
79.8	543	CC(C)Cc1ccc(-c2nc(-c3ccc(Cn4ccnc4)cc3)no2)cc1 [Compound 10, 3-(4-Imidazol-1-ylmethyl-phenyl)-5-(4-isobutyl-phenyl)-[1,2,4]oxadiazole]
96.4	4.76	Cc1cc(Cn2ccnc2)ccc1-c1noc(-c2ccc(OC(C)C)c(C#N)c2)n1 [Compound 13, 5-[3-(4-Imidazol-1-ylmethyl-2-methyl-phenyl)-[1,2,4]oxadiazol-5-yl]-2-isopropoxy-benzonitrile]
93.9	0.92	CC(C)Oc1ccc(-c2nc(-c3ccc(Cn4ccnc4)cc3)no2)cc1Br [Compound 14, 5-(3-Bromo-4-isopropoxy-phenyl)-3-(4-imidazol-1-ylmethyl-phenyl)-[1,2,4]oxadiazole]
109	19.6	Cc1cc(Cn2ccnc2)ccc1-c1noc(-c2ccc(OC(C)C)c(Br)c2)n1 [Compound 15, 5-(3-Bromo-4-isopropoxy-phenyl)-3-(4-imidazol-1-ylmethyl-2-methyl-phenyl)-[1,2,4]oxadiazole]
133	10.3	Cc1cc(-c2nc(-c3ccc(Cn4ccnc4)cc3)no2)ccc1OC(C)C [Compound 17, 3-(4-Imidazol-1-ylmethyl-phenyl)-5-(4-isopropoxy-3-methyl-phenyl)-[1,2,4]oxadiazole]
94.6	19.8	Cc1cc(-c2nc(-c3ccc(Cn4ccnc4)cc3C)no2)ccc1OC(C)C [Compound 18, 3-(4-Imidazol-1-ylmethyl-2-methyl-phenyl)-5-(4-isopropoxy-3-methyl-phenyl)-[1,2,4]oxadiazole]
102	8.98	Cc1cc(Cn2ccnc2)ccc1-c1noc(-c2ccc(OC(C)C)c([N+](=O)[O-])c2)n1 [Compound 19, 3-(4-Imidazol-1-ylmethyl-2-methyl-phenyl)-5-(4-isopropoxy-3-nitro-phenyl)-[1,2,4]oxadiazole]
